Measured values taken from US20040248919A1, “Fluorinated trienes and their use as rxr modulators” (priority 2001, published 2004).

Assays:
[1] = target: T1, RXRβ (UniProt P28704); experiment: RXR binding, competition with tritiated retinoid; conditions: read-out: RXR Binding beta
T1 sequence (P28704 1-520): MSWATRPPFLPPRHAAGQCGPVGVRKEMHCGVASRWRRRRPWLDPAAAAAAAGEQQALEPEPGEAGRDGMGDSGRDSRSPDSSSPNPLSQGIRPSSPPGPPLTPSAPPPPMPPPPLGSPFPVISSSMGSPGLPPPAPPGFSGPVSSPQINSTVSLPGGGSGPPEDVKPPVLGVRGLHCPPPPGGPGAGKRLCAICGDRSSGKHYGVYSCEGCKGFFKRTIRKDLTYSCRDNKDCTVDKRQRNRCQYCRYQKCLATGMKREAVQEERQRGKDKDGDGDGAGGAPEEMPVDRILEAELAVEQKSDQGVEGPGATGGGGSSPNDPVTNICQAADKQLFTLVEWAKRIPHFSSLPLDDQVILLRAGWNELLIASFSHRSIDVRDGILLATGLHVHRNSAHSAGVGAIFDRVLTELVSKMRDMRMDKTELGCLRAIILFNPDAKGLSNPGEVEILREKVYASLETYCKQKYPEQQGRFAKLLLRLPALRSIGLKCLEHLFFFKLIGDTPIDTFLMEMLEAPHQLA
From the text: (§1) In addition to the cotransfection data, the binding of selected compounds of the present invention to the RAR and RXR receptors was also investigated according to the methodology described in M. F., Boehm, et al., “Synthesis and Structure-Activity Relation-ships of Novel Retinoid X Receptor Selective Retinoids”, 37 J. Med. Chem., 2930 (1994); M. F. Boehm, et al., “Synthesis of High Specific Activity [^3H]-9-cis Retinoic Acid and Its Application for Identifying Retinoids with Unusual Binding Properties”, 37 J. Med. Chem., 408 (1994), and E. A. Allegretto, et al., “Characterization and Comparison of Hormone-Binding and Transactivation Properties of Retinoic Acid and Retinoid X Receptors Expressed in Mammalian Cells and Yeast”, 268 J. Biol. Chem., 22625 (1993), the disclosures of which are herein incorporated by reference.
(§2) Non-specific binding was defined as that binding remaining in the presence of 500 nM of the appropriate unlabelled compound. At the end of the incubation period, bound ligand was separated from free. The amount of bound tritiated retinoid was determined by liquid scintillation counting of an aliquot (700 μL) of the supernatant fluid or the hydroxylapatite pellet.
(§3) After correcting for non-specific binding, IC50 values were determined. The IC50 value is defined as the concentration of competing ligand needed to reduce specific binding by 50%. The IC50 value was determined graphically from a log-logit plot of the data. The Ki values were determined by application of the Cheng-Prussof equation to the IC50 values, the labeled ligand concentration and the Kd of the labeled ligand.

[2] = target: T2, RXRγ (UniProt P28705); experiment: RXR binding, competition with tritiated retinoid; conditions: read-out: RXR Binding gamma
T2 sequence (P28705 1-463): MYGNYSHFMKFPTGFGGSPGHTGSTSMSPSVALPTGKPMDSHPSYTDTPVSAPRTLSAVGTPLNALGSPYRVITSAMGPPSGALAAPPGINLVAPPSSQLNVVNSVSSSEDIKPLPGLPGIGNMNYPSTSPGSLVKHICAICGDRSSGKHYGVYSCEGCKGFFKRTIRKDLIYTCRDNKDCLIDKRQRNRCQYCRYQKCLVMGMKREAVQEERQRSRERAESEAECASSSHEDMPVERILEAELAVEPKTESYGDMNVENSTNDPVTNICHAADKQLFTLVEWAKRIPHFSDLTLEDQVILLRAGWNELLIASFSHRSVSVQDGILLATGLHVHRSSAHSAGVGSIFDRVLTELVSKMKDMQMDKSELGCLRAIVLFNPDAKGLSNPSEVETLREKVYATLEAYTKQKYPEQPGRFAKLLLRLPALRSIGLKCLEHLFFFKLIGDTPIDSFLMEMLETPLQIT
From the text: as §1, §2, §3

[3] = target: T3, RARα (Homo sapiens, UniProt P10276); experiment: RAR binding, competition with tritiated retinoid; conditions: read-out: RAR Binding alpha
T3 sequence (P10276 1-462): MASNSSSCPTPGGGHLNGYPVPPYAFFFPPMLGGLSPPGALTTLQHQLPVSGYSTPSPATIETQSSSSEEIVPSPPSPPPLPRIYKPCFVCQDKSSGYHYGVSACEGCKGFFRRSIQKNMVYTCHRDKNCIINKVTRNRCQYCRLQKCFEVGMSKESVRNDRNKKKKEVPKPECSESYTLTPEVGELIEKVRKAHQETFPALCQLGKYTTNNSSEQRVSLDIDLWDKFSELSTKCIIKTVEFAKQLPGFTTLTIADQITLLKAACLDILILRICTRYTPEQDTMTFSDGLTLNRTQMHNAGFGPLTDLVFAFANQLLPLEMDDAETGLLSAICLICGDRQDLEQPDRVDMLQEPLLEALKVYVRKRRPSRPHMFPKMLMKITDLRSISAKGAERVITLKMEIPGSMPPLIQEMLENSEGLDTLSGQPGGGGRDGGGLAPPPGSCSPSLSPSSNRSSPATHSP
From the text: as §1, §2, §3

[4] = target: T4, RARγ (Homo sapiens, UniProt P13631); experiment: RAR binding, competition with tritiated retinoid; conditions: read-out: RAR Binding gamma
T4 sequence (P13631 1-454): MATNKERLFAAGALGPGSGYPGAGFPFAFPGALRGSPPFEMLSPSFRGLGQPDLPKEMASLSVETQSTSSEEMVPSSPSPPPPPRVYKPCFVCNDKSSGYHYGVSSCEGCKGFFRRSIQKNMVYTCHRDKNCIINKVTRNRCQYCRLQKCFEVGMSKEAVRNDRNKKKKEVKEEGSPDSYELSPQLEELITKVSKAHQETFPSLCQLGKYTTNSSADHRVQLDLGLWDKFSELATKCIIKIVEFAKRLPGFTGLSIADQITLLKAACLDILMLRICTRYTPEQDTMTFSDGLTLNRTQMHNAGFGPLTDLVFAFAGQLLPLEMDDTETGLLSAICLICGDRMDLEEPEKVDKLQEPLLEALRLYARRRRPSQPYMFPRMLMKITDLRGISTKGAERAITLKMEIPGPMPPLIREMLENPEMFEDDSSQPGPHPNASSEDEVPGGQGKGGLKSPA
From the text: as §1, §2, §3

Row | Compound | Ki [1] | Ki [2] | Ki [3] | Ki [4]
1 | C/C(=C/C=C(F)/C(C)=C/C(=O)O)c1cc(C(C)(C)C)cc(C(C)(C)C)c1OCC(F)F [Example 1, 7-[3,5-di-tert-butyl-2-(2,2-difluoroethoxy)-phenyl]4-fluoro-3-methyl-octa-2,4,6-trienoic acid] | 12 nM | 21 nM | 1150 nM | –
2 | C/C(=C/C(F)=C/C(C)=C/C(=O)O)c1cc(C(C)(C)C)cc(C(C)(C)C)c1OCC(F)F [Example 2, 7-[3,5-Di-tert-butyl-2-(2,2-difluoroethoxy)-phenyl]-5-fluoro-3-methyl-octa-2,4,6-trienoic acid] | 15 nM | 29 nM | > 10000 nM | –
3 | CCCCOc1c(\C(C)=C/C=C/C(=C/C(=O)O)C(F)(F)F)cc(C(C)C)cc1C(C)C [Example 3, (2Z,4E,6Z)-7-(2-Butoxy-3,5-diisopropylphenyl)-3-trifluoromethyl-octa-2,4,6-trienoic acid] | 203 nM | 662 nM | > 10000 nM | > 10000 nM
4 | CCCCOc1c(\C(C)=C/C=C/C(=C\C(=O)O)C(F)(F)F)cc(C(C)C)cc1C(C)C [Example 4, (2E,4E,6Z)-7-(2-Butoxy-3,5-diisopropylphenyl)-3-trifluoromethyl-octa-2,4,6-trienoic acid] | 1080 nM | 865 nM | > 10000 nM | > 10000 nM
5 | CCOc1c(\C(=C/C=C/C(C)=C/C(=O)O)C(F)(F)F)cc(C(C)(C)C)cc1C(C)(C)C [Example 5, (2E,4E,6E)-3-methyl-7-(2-ethoxy-3,5-di-tert-butylphenyl)-8,8,8-trifluoroocta-2,4,6-trienoic acid] | 52 nM | 184 nM | > 10000 nM | > 10000 nM
